Laboratory results from BindingDB's records for doi:10.1021/jm900681h (Amgen, 2009).

biological target: Cellular tumor antigen p53 (Homo sapiens, UniProt P04637); test: Induction of p53-Ser15 phosphorylation in human HCT116 cells after 24 hrs
Sequence (P04637 whole entry): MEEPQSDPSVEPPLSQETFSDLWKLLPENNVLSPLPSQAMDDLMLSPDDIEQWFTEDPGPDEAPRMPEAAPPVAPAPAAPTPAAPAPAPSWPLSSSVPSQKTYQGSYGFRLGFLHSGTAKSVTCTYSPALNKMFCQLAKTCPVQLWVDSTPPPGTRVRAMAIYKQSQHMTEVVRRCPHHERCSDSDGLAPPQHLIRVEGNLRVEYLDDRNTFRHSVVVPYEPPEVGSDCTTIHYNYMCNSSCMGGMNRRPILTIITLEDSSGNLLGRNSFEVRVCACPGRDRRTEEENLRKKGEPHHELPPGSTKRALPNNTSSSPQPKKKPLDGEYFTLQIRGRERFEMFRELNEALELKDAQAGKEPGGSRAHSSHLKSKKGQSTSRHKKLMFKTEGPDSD

Compound	IC50 [µM]
Cc1ccc2c(c1)C1=C(C(c3ccc(Br)cc3)O2)C(c2ccc(Br)cc2)n2ncnc2N1C (configuration not stated)	1

biological target: not listed separately; test: Induction of p53 in human HCT116 cells coexpressing pp53TA-luc assessed as inhibition of cell proliferation after 8 hrs by firefly/renilla luciferase reporter assay

Compound	IC50 [µM]
CN1C2=C(C(c3ccc(Br)cc3)Oc3ccc(F)cc32)C(c2ccc(Br)cc2)n2ncnc21 (racemic) [(+/-)-syn-6,7-Bis(4-bromophenyl)-2-fluoro-12-methyl-7,12-dihydro-6H-chromeno[4,3-d][1,2,4]triazolo[1,5-a]pyrimidine]	44.3
Cc1cc2c(cc1F)OC(c1ccc(Br)cc1)C1=C2N(C)c2ncnn2C1c1ccc(Br)cc1 (racemic) [(+/-)-syn-6,7-Bis(4-bromophenyl)-3-fluoro-2,12-dimethyl-7,12-dihydro-6H-chromeno[4,3-d][1,2,4]triazolo[1,5-a]pyrimidine]	11.4
CN1C2=C(C(c3ccc(Cl)cc3)Oc3ccccc32)C(c2ccc(Cl)cc2)n2ncnc21 (racemic) [(+/-)-syn-6,7-Bis(4-chlorophenyl)-12-methyl-7,12-dihydro-6Hchromeno[4,3-d][1,2,4]triazolo[1,5-a]pyrimidine]	9.37
CN1C2=C(C(c3ccc(Cl)cc3)Oc3ccccc32)C(c2ccc(Br)cc2)n2ncnc21 (racemic) [(+/-)-syn-7-(4-Bromophenyl)-6-(4-chlorophenyl)-12-methyl-7,12-dihydro-6H-chromeno[4,3-d][1,2,4]triazolo[1,5-a]pyrimidine]	15

The next compounds have a lower IC50 than those just listed; values first:

IC50 [µM]	Compound
6.5	CCOc1cccc2c1C1=C(C(c3ccc(Br)cc3)O2)C(c2ccc(Br)cc2)n2ncnc2N1C (racemic) [(+/-)-syn-6,7-Bis(4-bromophenyl)-1-ethoxy-12-methyl-7,12-dihydro-6H-chromeno[4,3-d][1,2,4]triazolo[1,5-a]pyrimidine]
3	Cc1ccc2c(c1)C1=C(C(c3ccc(Br)cc3)O2)C(c2ccc(Br)cc2)n2ncnc2N1C (configuration not stated)
